How the values were obtained:
[1] = Antioxidant action examined by using stable radicals: reduction activity of DPPH (Blois method, absorbance at 517 nm); details: 0.1 mM DPPH in ethanol, after 20 minutes, read-out: 50% radical eliminating concentration
Experimental: (Antioxidant action examined by using stable radicals)
Reduction activity of α,α-diphenyl-β-picrylhydrazyl (DPPH) which was a stable free radical was examined according to the M. S. Blois method (Nature, vol. 181, page. 1199, 1958) and used as an index to antioxidant action. Thus, specimens were added to 3 ml of a 0.1 mM DPPH solution in ethanol, and absorbance at a wavelength of 517 nm was measured using a spectrophotometer after 20 minutes. The difference in absorbance from the solvent control [0.5% or less of dimethylformamide (DMF)] was taken as the reduction activity.

[2] = Effects on formazan formation in the xanthine-xanthine oxidase-Nitrotetrazolium Blue system; type: biochemical; details: for Inhibition ratio of formazan formation: pH 7.8, 30° C., 10 minutes; for inhibition of formazan formation (result in words): xanthine-xanthine oxidase-NTB system
Experimental: (Effects on formazan formation in the xanthine-xanthine oxidase-Nitrotetrazolium Blue system)
Specimens were added to a 0.05M phosphate buffer solution (pH 7.8) containing xanthine, EDTA 2Na and Nitrotetrazolium Blue (NTB) so as to provide the respective final concentrations of 5×10^-5 M, 1×10^-4 M and 5×10^-4 M and warmed at 30° C. for 3 minutes. Xanthine oxidase (manufactured by Sigma Corp.) was added, and the resulting specimens were warmed at 30° C. for 10 minutes to colorimetrically determine formazan formed by superoxide anion radicals. The inhibition ratio of formazan formation was determined from the results at concentrations of 0.5 mM and 4 mM of each specimen.

| Structure (SMILES) | IC50 [1] | also measured |
| --- | --- | --- |
| CCCCCCCCCCCCCCCCCCOC1=C(O)C(=O)O[C@@H]1[C@@H]1COC(C)(C)O1 [Compound 001] | 30 µM | – |
| CCCCCCCCCCCCOC1=C(O)C(=O)O[C@@H]1[C@@H]1COC(C)(C)O1 [Compound 002] | 29 µM | – |
| CCCCCCCCOC1=C(O)C(=O)O[C@@H]1[C@@H]1COC(C)(C)O1 [Compound 003] | 27 µM | – |
| CCCCOC1=C(O)C(=O)O[C@@H]1[C@@H]1COC(C)(C)O1 [Compound 004] | 25 µM | – |
| CCC(C)OC1=C(O)C(=O)O[C@@H]1[C@@H]1COC(C)(C)O1 (stereo partly shown) [Compound 005] | 32 µM | – |
| CC1(C)OC[C@@H]([C@H]2OC(=O)C(O)=C2OCc2ccccc2)O1 [Compound 006] | 22 µM | – |
| CC1(C)OC[C@@H]([C@H]2OC(=O)C(O)=C2OCc2cccnc2)O1 [Compound 007] | 23 µM | – |
| CCOC(=O)CCCCOC1=C(O)C(=O)O[C@@H]1[C@@H]1COC(C)(C)O1 [Compound 008] | 16 µM | – |
| CC1(C)OC[C@@H]([C@H]2OC(=O)C(O)=C2OCCCCCCCCCCCCCCCCC(=O)O)O1 [Compound 009] | 25 µM | – |
| CCOC(=O)CCCOC1=C(O)C(=O)O[C@@H]1[C@@H]1COC(C)(C)O1 [Compound 010] | 16 µM | – |
| C=CCOC1=C(O)C(=O)O[C@@H]1[C@@H]1COC(C)(C)O1 [Compound 011] | 33 µM | – |
| CC1(C)OC[C@@H]([C@H]2OC(=O)C(O)=C2OCCO)O1 [Compound 012] | 35 µM | – |
| COCOC1=C(O)C(=O)O[C@@H]1[C@@H]1COC(C)(C)O1 [Compound 013] | 17 µM | – |
| CCOC(=O)C(C)OC1=C(O)C(=O)O[C@@H]1[C@@H]1COC(C)(C)O1 (stereo partly shown) [Compound 014] | 26 µM | – |
| CC1(C)OC[C@@H]([C@H]2OC(=O)C(O)=C2OCC(=O)O)O1 [Compound 015] | 31 µM | – |
| CC1(C)OC[C@@H]([C@H]2OC(=O)C(O)=C2OCC(=O)OCc2ccccc2)O1 [Compound 016] | 25 µM | – |
| CC(C)(C)OC(=O)COC1=C(O)C(=O)O[C@@H]1[C@@H]1COC(C)(C)O1 [Compound 017] | 25 µM | – |
| CCCCCCCCCCOC(=O)COC1=C(O)C(=O)O[C@@H]1[C@@H]1COC(C)(C)O1 [Compound 018] | 28 µM | – |
| CCCCOC(=O)COC1=C(O)C(=O)O[C@@H]1[C@@H]1COC(C)(C)O1 [Compound 019] | 25 µM | – |
| CCOC(=O)COC1=C(O)C(=O)O[C@@H]1[C@@H]1COC(C)(C)O1 [Compound 020] | 23 µM | – |
| CC(=O)COC1=C(O)C(=O)O[C@@H]1[C@@H]1COC(C)(C)O1 [Compound 021, L-5,6-O-isopropylidene-3-O-methylcarbomethylascorbic acid] | 17 µM | Inhibition ratio of formazan formation ([2]; 0.5 mM): 9.2%; Inhibition ratio of formazan formation ([2]; 4 mM): 47.4%; inhibition of formazan formation (result in words) [2]: remarkably inhibited formazan formation |
| CCC(=O)COC1=C(O)C(=O)O[C@@H]1[C@@H]1COC(C)(C)O1 [Compound 022, L-5,6-O-isopropylidene-3-O-(3-butanone) ascorbic acid] | 20 µM | Inhibition ratio of formazan formation ([2]; 0.5 mM): 22.6%; Inhibition ratio of formazan formation ([2]; 4 mM): 26.7%; inhibition of formazan formation (result in words) [2]: remarkably inhibited formazan formation |
| CC1(C)OC[C@@H]([C@H]2OC(=O)C(O)=C2OCC(=O)c2ccccc2)O1 [Compound 023] | 24 µM | – |
| CC1(C)OC[C@@H]([C@H]2OC(=O)C(O)=C2OCC#N)O1 [Compound 024] | 31 µM | – |
| CCOC1=C(O)C(=O)O[C@@H]1[C@@H]1COC(C)(C)O1 [Compound 025] | 22 µM | – |

Source: US5034543A, “Ascorbic acid derivative and use as antioxidants” (Nippon Hypox Laboratories Incorporated, priority 1989, dated 1991)
